This note sets out measurements from ChEMBL document CHEMBL1130217, “Use of a pharmacophore model for the design of EGF-R tyrosine kinase inhibitors: 4-(phenylamino)pyrazolo[3,4-d]pyrimidines” (J Med Chem, 1997).

For test [1], the target named is T1, Epidermal growth factor receptor (Homo sapiens, UniProt P00533). The experiment in a line: Inhibition of EGF-stimulated tyrosine phosphorylation in A431 cells.
For test [2], the target named is Platelet-derived growth factor receptor (Homo sapiens, UniProt P09619+P16234). The experiment in a line: Inhibition of PDGF stimulated tyrosine phosphorylation in BALB/c3t3 cells.
Another test relates to Balb/MK. Description: Inhibition of proliferation of EGF-dependent BALB/MK cells. It is filed as functional, cell-based. The note with it: Mus musculus.
Test [3] has as its target Protein kinase C alpha type (Homo sapiens, UniProt P17252). The experiment in a line: Inhibitory activity against protein kinase C alpha […] kinase.
In test [4] the target is T1, Epidermal growth factor receptor.
Description: Inhibitory activity against epidermal growth factor receptor tyrosine kinase.
The target in test [5] is Proto-oncogene tyrosine-protein kinase Src (Homo sapiens, UniProt P12931). The experiment in a line: Inhibitory activity against c-Src tyrosine kinase.
Test [6] addresses Tyrosine-protein kinase ABL1 (Homo sapiens, UniProt P00519).
Description: Inhibitory activity against v-Abl tyrosine kinase
For test [7], the target named is Cyclin-dependent kinase 1 (Homo sapiens, UniProt P06493). Description: Inhibitory activity against CDK1 Ser/Thr kinase.
Cyclin-dependent kinase 1, sequence (P06493 whole entry): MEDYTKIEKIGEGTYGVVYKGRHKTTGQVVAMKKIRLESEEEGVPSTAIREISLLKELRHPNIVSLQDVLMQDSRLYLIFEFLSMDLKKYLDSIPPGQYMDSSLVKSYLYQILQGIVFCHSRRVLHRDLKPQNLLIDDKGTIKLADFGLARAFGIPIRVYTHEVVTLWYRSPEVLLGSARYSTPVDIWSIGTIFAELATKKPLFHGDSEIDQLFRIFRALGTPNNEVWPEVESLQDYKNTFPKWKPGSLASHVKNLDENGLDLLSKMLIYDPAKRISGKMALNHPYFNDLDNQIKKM

T1 sequence (P00533 whole entry): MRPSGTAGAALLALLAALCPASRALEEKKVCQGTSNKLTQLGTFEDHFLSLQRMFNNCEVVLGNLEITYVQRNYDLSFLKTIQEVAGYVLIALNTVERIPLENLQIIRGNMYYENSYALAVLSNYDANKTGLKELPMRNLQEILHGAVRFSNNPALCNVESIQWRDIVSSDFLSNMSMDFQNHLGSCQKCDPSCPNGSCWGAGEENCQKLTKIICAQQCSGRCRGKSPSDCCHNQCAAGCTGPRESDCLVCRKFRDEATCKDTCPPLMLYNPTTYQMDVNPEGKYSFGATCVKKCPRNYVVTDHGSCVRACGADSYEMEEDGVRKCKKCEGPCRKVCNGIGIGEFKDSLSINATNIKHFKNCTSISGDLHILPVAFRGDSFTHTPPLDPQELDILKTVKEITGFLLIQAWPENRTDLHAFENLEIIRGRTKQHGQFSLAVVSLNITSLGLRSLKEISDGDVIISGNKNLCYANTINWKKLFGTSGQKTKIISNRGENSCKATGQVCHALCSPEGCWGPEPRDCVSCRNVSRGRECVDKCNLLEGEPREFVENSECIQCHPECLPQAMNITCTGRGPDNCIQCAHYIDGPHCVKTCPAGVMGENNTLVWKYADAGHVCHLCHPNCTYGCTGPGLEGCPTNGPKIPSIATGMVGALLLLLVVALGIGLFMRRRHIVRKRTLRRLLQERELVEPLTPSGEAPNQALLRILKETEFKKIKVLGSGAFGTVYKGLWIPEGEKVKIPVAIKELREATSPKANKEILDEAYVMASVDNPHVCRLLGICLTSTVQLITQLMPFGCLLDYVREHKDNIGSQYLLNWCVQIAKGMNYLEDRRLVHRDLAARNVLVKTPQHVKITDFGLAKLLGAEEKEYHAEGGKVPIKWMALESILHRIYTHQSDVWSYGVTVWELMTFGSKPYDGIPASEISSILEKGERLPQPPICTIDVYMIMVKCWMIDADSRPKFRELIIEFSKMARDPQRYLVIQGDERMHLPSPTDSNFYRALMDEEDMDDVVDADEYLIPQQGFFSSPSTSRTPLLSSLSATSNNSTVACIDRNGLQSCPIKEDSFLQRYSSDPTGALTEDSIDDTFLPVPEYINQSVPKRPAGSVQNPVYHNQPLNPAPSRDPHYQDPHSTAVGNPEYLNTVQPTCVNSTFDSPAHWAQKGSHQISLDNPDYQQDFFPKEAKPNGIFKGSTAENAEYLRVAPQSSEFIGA
Proto-oncogene tyrosine-protein kinase Src, sequence (P12931 2-536 limits assumed): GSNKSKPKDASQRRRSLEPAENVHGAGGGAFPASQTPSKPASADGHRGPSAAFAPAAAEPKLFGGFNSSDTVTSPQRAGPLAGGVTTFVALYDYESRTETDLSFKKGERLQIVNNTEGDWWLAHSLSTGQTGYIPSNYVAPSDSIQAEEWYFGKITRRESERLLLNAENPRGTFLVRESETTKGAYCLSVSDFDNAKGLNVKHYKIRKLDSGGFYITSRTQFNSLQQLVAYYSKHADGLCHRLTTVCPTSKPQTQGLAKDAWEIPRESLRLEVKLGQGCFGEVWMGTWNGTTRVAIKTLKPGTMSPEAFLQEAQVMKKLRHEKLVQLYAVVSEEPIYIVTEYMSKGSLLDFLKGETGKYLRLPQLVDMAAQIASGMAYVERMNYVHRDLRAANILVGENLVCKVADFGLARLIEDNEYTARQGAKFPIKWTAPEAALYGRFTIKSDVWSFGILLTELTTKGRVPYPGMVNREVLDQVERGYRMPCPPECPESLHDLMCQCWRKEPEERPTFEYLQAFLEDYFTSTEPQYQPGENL
Tyrosine-protein kinase ABL1, sequence (P00519 whole entry, looked up): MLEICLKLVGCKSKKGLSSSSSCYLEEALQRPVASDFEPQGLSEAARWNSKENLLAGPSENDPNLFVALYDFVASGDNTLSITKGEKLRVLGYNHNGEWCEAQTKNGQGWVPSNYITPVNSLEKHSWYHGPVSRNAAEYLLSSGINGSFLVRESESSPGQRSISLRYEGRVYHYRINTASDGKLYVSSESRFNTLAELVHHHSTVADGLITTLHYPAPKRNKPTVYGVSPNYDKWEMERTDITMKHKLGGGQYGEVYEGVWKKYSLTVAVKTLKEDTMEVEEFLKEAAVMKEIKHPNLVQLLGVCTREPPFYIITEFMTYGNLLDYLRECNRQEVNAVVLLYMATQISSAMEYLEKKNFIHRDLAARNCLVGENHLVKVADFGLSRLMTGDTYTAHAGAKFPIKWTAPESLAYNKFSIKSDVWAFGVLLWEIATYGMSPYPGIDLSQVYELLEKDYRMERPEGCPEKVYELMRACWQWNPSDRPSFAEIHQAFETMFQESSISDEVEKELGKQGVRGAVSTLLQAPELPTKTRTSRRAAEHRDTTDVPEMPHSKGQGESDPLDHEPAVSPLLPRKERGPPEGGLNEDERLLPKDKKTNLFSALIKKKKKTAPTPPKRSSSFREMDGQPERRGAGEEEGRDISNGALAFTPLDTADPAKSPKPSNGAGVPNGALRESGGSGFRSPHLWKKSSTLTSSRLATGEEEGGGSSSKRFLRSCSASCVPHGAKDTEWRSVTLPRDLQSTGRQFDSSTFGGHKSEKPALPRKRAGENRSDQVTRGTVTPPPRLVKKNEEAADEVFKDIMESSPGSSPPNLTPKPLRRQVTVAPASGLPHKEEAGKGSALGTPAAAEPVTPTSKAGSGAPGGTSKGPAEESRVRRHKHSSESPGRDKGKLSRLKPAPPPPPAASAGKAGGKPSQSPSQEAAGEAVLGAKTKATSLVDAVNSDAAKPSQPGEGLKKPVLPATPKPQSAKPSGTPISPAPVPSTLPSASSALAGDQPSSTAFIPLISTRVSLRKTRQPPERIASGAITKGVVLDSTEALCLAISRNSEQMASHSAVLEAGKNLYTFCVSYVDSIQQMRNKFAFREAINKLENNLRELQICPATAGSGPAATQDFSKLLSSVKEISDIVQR

Turning to `COc1ccc(-c2[nH]nc3ncnc(Nc4cccc(Cl)c4)c23)cc1`, the IC50 in test [1] was 1.5 µM; in test [2] it was over 10 µM; in the test on Balb/MK, 1.6 µM; in test [3], over 10 µM; in test [4] it was 0.096 µM; in test [5], over 10 µM. In addition, the IC50 is 16.5 µM in test [6] and over 100 µM in test [7].

Regarding `COc1ccc(CNc2[nH]nc3ncnc(Nc4cccc(Cl)c4)c23)cc1`, the IC50 in test [1] is 0.02 µM; in test [2], over 10 µM; with Balb/MK, 0.86 µM; in test [3], over 100 µM; in test [4], 0.007 µM; in test [5], over 10 µM. The results for the IC50 in test [6] and in test [7] were over 10 µM and 5 µM, respectively.

Consider `Nc1ncnc2c1cnn2-c1ccccc1`, for which, in test [4], the midpoint of inhibition, the IC50, lay at 2.7 µM.

In the case of `Clc1cccc(Nc2[nH]nc3ncnc(Nc4ccccc4)c23)c1`, the IC50 in test [1] was 1 µM; in test [2] it was over 10 µM; in the test on Balb/MK it was 2.56 µM; in test [3], 7.8 µM; in test [4], 0.084 µM; in test [5], 2.25 µM. The IC50 in test [6] was found to be 1.36 µM.

As to `Clc1cccc(Nc2[nH]nc3ncnc(NCc4ccccc4)c23)c1`, the IC50 in test [1] was 1.5 µM; in test [2], over 10 µM; in the test with Balb/MK it was 49.9 µM; in test [3], 4.5 µM; in test [4], 0.87 µM; in test [5], over 10 µM. For the same compound, the results for the half-inhibitory concentration (IC50) in test [6] and in test [7] were over 10 µM and 9 µM, respectively.

Take `Oc1ccc(-c2[nH]nc3ncnc(Nc4cccc(Cl)c4)c23)cc1`: the half-inhibitory concentration (IC50) in test [1] was 0.5 µM; in test [2] it was over 10 µM; in the test with Balb/MK, 0.56 µM; in test [3], 1.85 µM; in test [4], 0.006 µM; in test [5], 8.55 µM. The IC50 in test [6] amounted to 0.24 µM; in test [7], 0.26 µM.

Take `Clc1cccc(CNc2[nH]nc3ncnc(Nc4cccc(Cl)c4)c23)c1`: the IC50 in test [1] was 1.5 µM; in test [2] it was over 10 µM; in the test on Balb/MK, 3.19 µM; in test [3], over 10 µM; in test [4], 0.026 µM; in test [5], 2.09 µM. Moreover, the results for the IC50 in test [6] and in test [7] were over 10 µM and 16 µM, respectively.

For the compound `Clc1cccc(Nc2[nH]cnc3nnc(NCc4ccccc4)c2-3)c1`, the IC50 is 0.003 µM in test [1]; over 10 µM in test [2]; 0.3 µM with Balb/MK; 10 µM in test [3]; 0.007 µM in test [4]; over 10 µM in test [5]. The IC50 in test [6] came out at 6.6 µM; in test [7] it was 7.4 µM.

For `COc1cc2ncnc(Nc3cccc(Br)c3)c2cc1OC`, the 50% inhibitory concentration (IC50) in the test with Balb/MK was 0.2 µM; in test [3], over 100 µM; in test [5] it was 1.4 µM; in test [7], 100 µM.

As for `Nc1ccc(-c2[nH]nc3ncnc(Nc4cccc(Cl)c4)c23)cc1`, the IC50 was 0.8 µM in test [1]; over 10 µM in test [2]; 0.78 µM in the test with Balb/MK; 3.6 µM in test [3]; 0.002 µM in test [4]; 4.9 µM in test [5]. Also, the IC50 in test [6] came out at 3.6 µM; in test [7] it was 4.5 µM.

`CN(C)c1ccc(Nc2[nH]nc3ncnc(Nc4cccc(Cl)c4)c23)cc1`: the IC50 in test [1] was 1.5 µM; in test [2], 10 µM; in the test with Balb/MK, 1.55 µM; in test [3] it was 2.9 µM; in test [4] it was 0.029 µM; in test [5] it was over 10 µM. Besides, the values for the IC50 in test [6] and in test [7] were over 10 µM and 0.35 µM, respectively.

`Cc1c(C)n(-c2ccccc2)c2ncnc(N)c12` returned an IC50 in test [4] of 2.71 µM.

`Oc1cccc(Nc2[nH]nc3ncnc(Nc4cccc(Cl)c4)c23)c1`: the IC50 was 0.004 µM in test [1]; over 10 µM in test [2]; 0.46 µM with Balb/MK; 0.56 µM in test [3]; 0.001 µM in test [4]; 0.22 µM in test [5]. Also, the IC50 in test [6] is 0.26 µM; in test [7] it was 3 µM.

`Cc1c(C)n(C)c2ncnc(Nc3cccc(Cl)c3)c12` returned an IC50 in test [4] of 450 µM.

With `Nc1cccc(-c2[nH]nc3ncnc(Nc4cccc(Cl)c4)c23)c1`, the IC50 in test [1] is 0.8 µM; in test [2] it was over 10 µM; with Balb/MK, 0.94 µM; in test [3], 1.5 µM; in test [4], 0.005 µM; in test [5], over 10 µM. Besides, the IC50 in test [6] is 3.09 µM; in test [7], 0.68 µM.

As to `Nc1nc(N)c2c(Nc3cccc(Cl)c3)[nH]nc2n1`, the half-maximal inhibitory concentration (IC50) in test [1] is 9 µM; in test [2], over 10 µM; with Balb/MK, 2.87 µM; in test [3], 24 µM; in test [4], 0.22 µM; in test [5], 6 µM. Besides, in test [6], the 50% inhibitory concentration (IC50) was 0.41 µM.

Consider `Nc1ccc(Nc2[nH]nc3ncnc(Nc4cccc(Cl)c4)c23)cc1`, for which the IC50 in test [2] was over 10 µM; in test [3] it was over 1 µM; in test [5], 2.4 µM; in test [6], 1.18 µM; in test [7], over 1 µM.

In the case of `O=[N+]([O-])c1cccc(-c2[nH]nc3ncnc(Nc4cccc(Cl)c4)c23)c1`, the IC50 in test [1] is over 100 µM; in test [2] it was over 10 µM; in the test on Balb/MK, over 50 µM; in test [3], over 10 µM; in test [4], 0.27 µM; in test [5], 9.8 µM. For the same compound, the values for the IC50 in test [6] and in test [7] were over 10 µM and over 100 µM, respectively.

Take `Oc1ccc(Nc2[nH]nc3ncnc(Nc4cccc(Cl)c4)c23)cc1`: the IC50 is 0.04 µM in test [1]; over 10 µM in test [2]; 1.06 µM in the test on Balb/MK; over 1 µM in test [3]; 0.008 µM in test [4]; 0.4 µM in test [5]. Besides, the IC50 in test [6] is 0.15 µM; in test [7] it was over 1 µM.

Turning to `Nc1ncnc2c1ncn2-c1ccccc1`, in test [4], it took 15 µM to reach half-maximal inhibition (IC50).

Regarding `Clc1cccc(Nc2[nH]nc3ncnc(Oc4cccc(Cl)c4)c23)c1`, the IC50 in test [1] is over 100 µM; in test [2], over 10 µM; in the test with Balb/MK, over 50 µM; in test [3] it was over 100 µM; in test [4], 24.2 µM; in test [5] it was over 10 µM. Besides, the IC50 in test [6] is over 10 µM.

Consider `c1ccc(Nc2ncnc3n[nH]c(Nc4ccccc4)c23)cc1`, for which the IC50 in test [1] was 12 µM; in test [2] it was over 10 µM; with Balb/MK, 8.4 µM; in test [3], 6.9 µM; in test [4], 0.058 µM; in test [5], 75 µM. In addition, the half-maximal inhibitory concentration (IC50) in test [6] came to 1.96 µM.

Take `Nc1[nH]cnc2nnc(Nc3cccc(Cl)c3)c1-2`: the IC50 is 35 µM in test [1]; over 10 µM in test [2]; 14 µM in the test on Balb/MK; 24 µM in test [3]; 0.16 µM in test [4]; 6 µM in test [5]. Moreover, the IC50 in test [6] was 0.41 µM.

As to `CC(C)(C)OC(=O)Nc1ccc(-c2[nH]nc3ncnc(Nc4cccc(Cl)c4)c23)cc1`, the IC50 in test [1] was 1.5 µM; in test [2], over 10 µM; with Balb/MK, 4.3 µM; in test [3], over 10 µM; in test [4], 0.27 µM; in test [5], 9.8 µM.

In general, IC50 refers to the concentration that gives 50% inhibition. A low value points to greater potency in that assay.
